Measured values taken from US20260355325A1, “DIMER COMPOUNDS” (KESMALEA THERAPEUTICS LIMITED, priority 2023, published 2026).

Tests used:
[1] = target: T1, AR (Androgen Receptor) (Homo sapiens, UniProt P10275); assay: AR IFA Assay (androgen receptor degradation in LNCaP and VCaP cells); type: cell-based; details: AR degradation in cells (LNCaP, VCaP) at 48-hour timepoint
T1 construct: immunofluorescence degradation readout (antibody D6F11), 48 h
T1 sequence (P10275 1-920): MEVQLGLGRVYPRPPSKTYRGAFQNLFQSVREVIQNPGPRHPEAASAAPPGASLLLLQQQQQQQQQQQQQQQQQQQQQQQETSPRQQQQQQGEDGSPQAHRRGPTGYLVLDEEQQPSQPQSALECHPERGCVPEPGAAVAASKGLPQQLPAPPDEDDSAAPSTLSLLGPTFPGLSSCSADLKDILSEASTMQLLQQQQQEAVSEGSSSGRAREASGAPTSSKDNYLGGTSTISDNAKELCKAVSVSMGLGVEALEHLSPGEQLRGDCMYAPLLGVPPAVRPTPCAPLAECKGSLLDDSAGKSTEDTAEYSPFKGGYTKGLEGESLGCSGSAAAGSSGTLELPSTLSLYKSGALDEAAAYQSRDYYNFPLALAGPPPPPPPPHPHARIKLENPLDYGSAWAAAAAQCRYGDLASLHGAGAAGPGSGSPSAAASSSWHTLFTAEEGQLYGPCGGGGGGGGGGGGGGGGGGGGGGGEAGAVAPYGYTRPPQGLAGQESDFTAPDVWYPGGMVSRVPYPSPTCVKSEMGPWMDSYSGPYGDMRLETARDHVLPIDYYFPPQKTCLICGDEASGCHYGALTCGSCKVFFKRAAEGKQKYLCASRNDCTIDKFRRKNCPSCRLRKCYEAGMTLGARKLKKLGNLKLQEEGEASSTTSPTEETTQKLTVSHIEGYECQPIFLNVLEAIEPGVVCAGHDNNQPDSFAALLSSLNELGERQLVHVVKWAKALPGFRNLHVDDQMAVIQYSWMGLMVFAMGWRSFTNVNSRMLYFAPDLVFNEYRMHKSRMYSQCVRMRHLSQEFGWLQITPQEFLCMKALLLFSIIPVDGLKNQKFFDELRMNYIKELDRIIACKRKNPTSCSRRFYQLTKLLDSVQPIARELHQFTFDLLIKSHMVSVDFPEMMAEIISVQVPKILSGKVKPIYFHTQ
From the text: The purpose of the AR Assays were to assess the binding affinity of the dimer to AR and subsequent protein degradation.
(§1) LNCaP, and VCaP cells were obtained from ATCC (ATCC, Manassas, VA). LNCaP cells were maintained in RPMI 1640 (Invitrogen™, Waltham, MA) supplemented with 10% FBS (AusGeneX, Molendinar, Australia) and 1% penicillin/streptomycin (Invitrogen™, Waltham, MA). VCaP cells were maintained in 1:1 ratio F-12(HAM) Nutrient mixture (AdvanCell Technology, Taichung city, Taiwan) and DMEM (Invitrogen™, Waltham, MA) supplemented with 10% FBS (AusGeneX, Molendinar, Australia) and 1% penicillin/streptomycin (Invitrogen™, Waltham, MA).
Compounds were dissolved in DMSO (10 mM), serially diluted from 10 mM to 1.5 nM, and pre-incubated for 2 hours. Exponentially growing cells were seeded at 8×10^3 cells per well of 384 well plate (Corning, New York #356663). Cells were treated with compound for 48 hours. Following treatment, cells were fixed with 4% PFA (SolarBio Lifescience, Beijing, China) for 20 minutes, permeabilised in 100% ice-cold methanol (Merck, Darmstadt, Germany) for 10 minutes, and blocked with blocking buffer (LI-COR Biosciences Lincoln, NE) for 90 minutes. Cells were incubated with primary Androgen Receptor (D6F11) XP® Rabbit mAb antibody (CST #5153 Danvers, MA) at 1:1000 dilution overnight in blocking buffer (LI-COR, Lincoln, NE) at 4° C. Cells were washed in DPBS (Thermo Fisher Scientific, Waltham, MA) and incubated with secondary antibody AlexaFluor 488 goat anti rabbit (Invitrogen™ #A-11008 Waltham, MA) 1:1000 dilution, with Hoechst stain (Invitrogen™ Waltham, MA) 1:5000 dilution in blocking buffer (LI-COR Biosciences, Lincoln, NE) for 90 minutes. After final DPBS wash, 200 ul of DPBS was added to the cells, and signal read on Operetta (Revvity, Waltham, MA). Each data point was performed in duplicate for every experiment. A DC50 value was calculated from linear regression analysis of the plots.

[2] = tested on: 22RV-1, LNCaP, and VCaP cells; assay: AR CTG Assay (Cell Titer-Glo cell viability); type: cell-based; details: Cell viability in cells at 24-hour timepoint (22RV-1, LNCaP, VCaP; line not stated)
From the text: as §1, with “22RV-1, LNCaP,” for “LNCaP,”, “VA). 22RV-1 and” for “VA).”
Compounds were dissolved in DMSO (10 mM), serially diluted from 10 mM to 1.5 nM, and pre-incubated for 2 hours. Exponentially growing cells were seeded at 8×10^3 cells per well of 384 well plate (Corning, New York #3570). Cells were treated with compound for 24 hours. Following treatment, Cell Titer-Glo® Detection reagent (Promega Corporation, Madison, WA) was added according to manufacturer's instructions, and signal read using BMG CLARIOstar plate reader (BMG Labtech, Ortenburg, Germany). Each data point was performed in duplicate for every experiment. A GI50 value was calculated from linear regression analysis of the plots.

DC50 [1] [µM]	IC50 [2] [µM]	Compound
0.1 to 0.5	> 10	Cc1cc(C(=O)N(C)CCCOc2cccc3c2CN(C2CCC(=O)NC2=O)C3=O)ccc1B1O[C@H]2C[C@H]3C[C@H](C3(C)C)[C@@]2(CCCNc2ccc(C(=O)N[C@H]3CC[C@H](Oc4ccc(C#N)c(Cl)c4)CC3)cc2)O1 (mixture of isomers) [Example 23, 4-((3aR,4R,6R,7aS)-3a-(3-((4-((trans-4-(3-chloro-4-cyanophenoxy)cyclohexyl)carbamoyl)phenyl)amino)propyl)-5,5-dimethylhexahydro-4,6-methanobenzo[d][1,3,2]dioxaborol-2-yl)-N-(3-((2-(2,6-dioxopiperidin-3-yl)-1-oxoisoindolin-4-yl)oxy)propyl)-N,3-dimethylbenzamide]
0.1 to 0.5	> 10	Cc1ccc(C(=O)N(C)CCCOc2cccc3c2CN(C2CCC(=O)NC2=O)C3=O)cc1B1O[C@H]2C[C@H]3C[C@H](C3(C)C)[C@@]2(CCCNc2ccc(C(=O)N[C@H]3CC[C@H](Oc4ccc(C#N)c(Cl)c4)CC3)cc2)O1 (mixture of isomers) [Example 24, 3-((3aR,4R,6R,7aS)-3a-(3-((4-((trans-4-(3-chloro-4-cyanophenoxy)cyclohexyl)carbamoyl)phenyl)amino)propyl)-5,5-dimethylhexahydro-4,6-methanobenzo[d][1,3,2]dioxaborol-2-yl)-N-(3-((2-(2,6-dioxopiperidin-3-yl)-1-oxoisoindolin-4-yl)oxy)propyl)-N,4-dimethylbenzamide]
0.1 to 0.5	> 10	Cc1cc([C@@H](C(=O)N2C[C@H](O)C[C@H]2C(=O)NCc2ccc(Cl)cc2B2O[C@H]3C[C@H]4C[C@H](C4(C)C)[C@@]3(CCNc3ccc(C(=O)N[C@H]4CC[C@H](Oc5ccc(C#N)c(Cl)c5)CC4)cc3)O2)C(C)C)on1 (racemic) [Example 22, (2S,4R)—N-(4-chloro-2-((3aR,4R,6R,7aS)-3a-(2-((4-((trans-4-(3-chloro-4-cyanophenoxy)cyclohexyl)carbamoyl)phenyl)amino)ethyl)-5,5-dimethylhexahydro-4,6-methanobenzo[d][1,3,2]dioxaborol-2-yl)benzyl)-4-hydroxy-1-((S)-3-methyl-2-(3-methylisoxazol-5-yl)butanoyl)pyrrolidine-2-carboxamide]

Compound	DC50 [1] [µM]	IC50 [2] [µM]
Cc1cc2c(cc1B1O[C@H]3C[C@H]4C[C@H](C4(C)C)[C@@]3(CCOc3ccc(N4C(=S)N(c5ccc(C#N)c(C(F)(F)F)c5)C(=O)C4(C)C)cc3)O1)CN(CCCOc1cccc3c1CN(C1CCC(=O)NC1=O)C3=O)C2=O (stereo partly drawn) [Example 21, 4-(3-(4-(2-((3aR,4R,6R,7aS)-2-(2-(3-((2-(2,6-dioxopiperidin-3-yl)-1-oxoisoindolin-4-yl)oxy)propyl)-6-methyl-1-oxoisoindolin-5-yl)-5,5-dimethyltetrahydro-4,6-methanobenzo[d][1,3,2]dioxaborol-3a(4H)-yl)ethoxy)phenyl)-4,4-dimethyl-5-oxo-2-thioxoimidazolidin-1-yl)-2-(trifluoromethyl)benzonitrile]	0.1 to 0.5	> 10
